What all share (format): cell-based, human
One assay has as its system HER2. As to the kind of experiment: Induction of HER2 degradation in MCF-7 cells (immunoblotting). The settings on record: for pIC50: MCF-7 cells, 24-hr treatment, amount of drug needed to degrade 50% of the protein, average of three experiments, read-out: IC50 (HER-2). On the procedure:
(§1) The human breast cancer cell lines MCF-7 and SKBR-3 were obtained from ATCC (Rockville, Md.), and maintained in DME/F12 (1:1) supplemented with 10% heat-inactivated fetal bovine serum (Gemini Bioproducts), 2 mM glutamine, and 50 units/ml each of penicillin and streptomycin, in a humidified 5% CO2/air atmosphere at 37° C.
(§2) Polyclonal antibodies against HER2 (c-18), Raf-1 (c-12), and P13 kinase (p85) (Z-8) were purchased from Santa Cruz Biotechnology, Inc. A monoclonal antibody against estrogen receptor (clone H-151) was obtained from StressGen Biotechnology Corp. A polyclonal antibody against the β-subunit of IGF-I receptor was kindly provided by Dr. L-H, Wang (Mt. Sinai Medical Center, New York).
(§3) After exposure, cells were washed twice with ice-cold phosphate-buffered saline (PBS), collected by scraping and transferred into microcentrifuge tubes. For immunoblotting (HER2, Raf-1, ER), cells were lysed with SDS lysis buffer (50 mM Tris-HCl, pH 7.5, 2% SDS, 10% glycerol, and 1 mM DTT), boiled for 10 min, and sonicated briefly; for immunoprecipitation (IGF-IR), cells were lysed with NP40 lysis buffer (50 mM Tris-HCl, pH 7.5, 1% Nonidet P-40, 150 mM NaCl, 1 mM Na3VO4, 40 mM NaF, 1 mM phenylmethylsulfonyl fluoride (PMSF) and 10 μg/ml each of aprotinin, leupeptin and soybean trypsin inhibitor) for 20 min at 4° C. Cell lysates were cleared by centrifuging at 14,000×g for 15 min at 4° C. in a microcentrifuge; the supernatants were collected as the experimental samples. Protein concentration in each sample was determined using the BCA kit (Pierce) according to the manufacture's instructions. For detecting IGF-IR, samples were immunoprecipitated with anti-IGF-IR antibody. Immunocomplexes were collected on protein A-Sepharose beads (Pharmacia), washed three times with the lysis buffer. Samples were subjected to SDS-PAGE, electrotransferred to nitrocellulose membranes, detected using the ECL kit (Amersham) according to the manufacturer's protocol, and quantitated using the Gel Doc 1000 (Bio-Rad).

The test system of a further assay is Raf-1. Put plainly: Induction of Raf-1 degradation in MCF-7 cells (immunoblotting). As to conditions: for pIC50: MCF-7 cells, 24-hr treatment, amount of drug needed to degrade 50% of the protein, average of three experiments. On the procedure: as §1, §2, §3
The next assay concerns MCF-7 cells. As to the kind of experiment: MCF-7 cell growth inhibition (cell counting). As to conditions: MCF-7 cells treated for four days, average of three experiments, read-out: IC50 (growth inh.). On the procedure:
as §1
For cell growth experiments, cells were placed in 6-well tissue-culture plates (Corning) at 20,000 cells/well. Two days after plating, cells were treated with different concentrations of drugs or the vehicle DMSO (0.1%). MCF-7 cells were treated for four days; medium with the appropriate drug or vehicle was changed every 2 days; cells were trypsinized, collected and counted on a Coulter counter; IC50 for cell growth is designated as the amount of each drug needed to inhibit MCF-7 growth by 50% compared to the control vehicle.

pIC50: −log10 of the molar value. Read-outs that look alike come from different tables or passages of the source.

Regarding `COC1C=CC=C(C)C(=O)NC2=CC(=O)C(NCCCCCCCCCNC3=C4CC(C)CC(OC)C(O)C(C)C=C(C)C(OC(N)=O)CC(OC)C=CC=C(C)C(=O)NC(=CC3=O)C4=O)=C(CC(C)CC(OC)C(O)C(C)C=C(C)C(OC(N)=O)C1)C2=O` (stereo not drawn) [9 O———O], the pIC50 is 6.30 in the assay with HER2; 5.42 in the assay on Raf-1; 6.15 in the assay on MCF-7 cells (Homo sapiens, MCF7, 96 h).
As to `COC1C=CC=C(C)C(=O)NC2=CC(=O)C(NCCCCCCCCCCCCNC3=C4CC(C)CC(OC)C(O)C(C)C=C(C)C(OC(N)=O)CC(OC)C=CC=C(C)C(=O)NC(=CC3=O)C4=O)=C(CC(C)CC(OC)C(O)C(C)C=C(C)C(OC(N)=O)C1)C2=O` (stereo not drawn) [12 O———O], the pIC50 with HER2 is 6.12; in the assay on Raf-1, 5.46; in the assay with MCF-7 cells (Homo sapiens, MCF7, 96 h) it was 6.15.
In the case of `COC1C=CC=C(C)C(=O)NC2=CC(=O)C(NCCCCN)=C(CC(C)CC(OC)C(O)C(C)C=C(C)C1OC(N)=O)C2=O` (stereo not drawn) [ButylaminoGM], the negative-log IC50 (pIC50) in the assay on HER2 is 7.10; in the assay with Raf-1, 6.46; with MCF-7 cells, 6.22. The “Activity against HER2 (in words)” value in the assay with HER2 (degradation in MCF-7 cells) is recorded as “modestly weaker than GM”. The “Selectivity / specificity for HER-2 over Raf-1” value in the assay on HER2 (degradation in MCF-7 cells, compared to GM) was “not selective”. In the assay on Raf-1 (degradation in MCF-7 cells), the “Activity against Raf-1 (in words)” value is listed as “modestly weaker than GM”.
Turning to `COC1=C2C[C@@H](C)C[C@H](OC)[C@H](O)[C@@H](C)/C=C(\C)[C@H](OC(N)=O)[C@@H](OC)/C=C\C=C(/C)C(=O)NC(=CC1=O)C2=O` [GM, Geldanamycin, reference compound], the pIC50 with HER2 was 7.35; with Raf-1, 6.70; in the assay on MCF-7 cells (Homo sapiens, MCF7, 96 h), 7.60.
Taken in the same sequence, the figures for `COC1C=CC=C(C)C(=O)NC2=CC(=O)C(NCCCCCCCNC3=C4CC(C)CC(OC)C(O)C(C)C=C(C)C(OC(N)=O)CC(OC)C=CC=C(C)C(=O)NC(=CC3=O)C4=O)=C(CC(C)CC(OC)C(O)C(C)C=C(C)C(OC(N)=O)C1)C2=O` (stereo not drawn) [GMD-7c] were 7.15, 6.30 and 6.22.

Values taken from patent publication US7238682B1, “Methods and compositions for degradation and/or inhibition of HER-family tyrosine kinases” (Sloan-Kettering Institute for Cancer Research, priority 1999, dated 2007).
